Counter-ions that a name gives are not always drawn.
System: not given
Assay: not given
Conditions: not given

Compared with Cc1ccc(-c2ccn(-c3ccc4c(cnn4CCN4CCCC4)c3)c(=O)c2)cc1.Cl, Cl.O=c1cc(-c2ccc(F)cc2)ccn1-c1ccc2c(cnn2CCN2CCCC2)c1 is lower in melting point: 240 to 246 °C for the first, 115 to 120 °C for the second.

First: Cl.O=c1cc(-c2ccc(OC(F)(F)F)cc2)ccn1-c1ccc2c(cnn2CCN2CCCC2)c1
Second: COc1ccc(-c2ccn(-c3ccc4c(cnn4CCN4CCCC4)c3)c(=O)c2)cc1.Cl
The melting point of the first is higher: 202 to 209 °C for the first, 105 to 110 °C for the second.

First: Cl.N#Cc1ccc(-c2ccn(-c3ccc4c(cnn4CCN4CCCC4)c3)c(=O)c2)cc1
Second: CCOc1ccc(-c2ccn(-c3ccc4c(cnn4CCN4CCCC4)c3)c(=O)c2)cc1.Cl
The melting point of the first is lower: 92 to 96 °C for the first, 255 to 265 °C for the second.

First: Cl.N#Cc1cc(F)ccc1-c1ccn(-c2ccc3c(cnn3CCN3CCCC3)c2)c(=O)c1
Second: Cl.O=c1cc(-c2ccc(F)cc2F)ccn1-c1ccc2c(cnn2CCN2CCCC2)c1
The melting point of the first is lower: 81 to 86 °C for the first, 235 to 255 °C for the second.

First: COc1ccc(-c2ccn(-c3ccc4c(cnn4CCN4CCCC4)c3)c(=O)c2)c(OC)c1.Cl
Second: COc1ccc(-c2ccn(-c3ccc4c(cnn4CCN4CCCC4)c3)c(=O)c2)c(C)c1.Cl
The melting point of the first is lower: 95 to 115 °C for the first, 205 to 215 °C for the second.

Compared with CC(C)Oc1ccc(-c2ccn(-c3ccc4c(cnn4CCN4CCCC4)c3)c(=O)c2)cc1.Cl, Cl.O=c1cc(-c2cccc(Cl)c2)ccn1-c1ccc2c(cnn2CCN2CCCC2)c1 is lower in melting point: 235 to 250 °C for the first, 118 to 125 °C for the second.

First: Cl.O=c1cc(-c2ccc(C(F)(F)F)cc2C(F)(F)F)ccn1-c1ccc2c(cnn2CCN2CCCC2)c1
Second: Cl.O=c1cc(-c2ccc(C(F)(F)F)cc2F)ccn1-c1ccc2c(cnn2CCN2CCCC2)c1
The melting point of the first is higher: 235 to 245 °C for the first, 80 to 95 °C for the second.

First: CCCCOc1ccc(-c2ccn(-c3ccc4c(cnn4CCN4CCCC4)c3)c(=O)c2)c(C)c1.Cl
Second: Cc1cc(OC(F)(F)F)ccc1-c1ccn(-c2ccc3c(cnn3CCN3CCCC3)c2)c(=O)c1.Cl
The melting point of the first is lower: 80 to 95 °C for the first, 185 to 195 °C for the second.

Compared with Cc1ccccc1-c1ccn(-c2ccc3c(cnn3CCN3CCCC3)c2)c(=O)c1.Cl, O=c1cc(-c2cccc3ccccc23)ccn1-c1ccc2c(cnn2CCN2CCCC2)c1 (as salt: hydrochloride) is higher in melting point: 80 to 95 °C for the first, 128 to 133 °C for the second.

First: Cc1cc(OCc2ccccc2)ccc1-c1ccn(-c2ccc3c(cnn3CCN3CCCC3)c2)c(=O)c1.Cl
Second: Cl.O=c1cc(-c2ccc3ccccc3c2)ccn1-c1ccc2c(cnn2CCN2CCCC2)c1
The melting point of the first is lower: 75 to 85 °C for the first, 128 to 134 °C for the second.

First: COc1cc(Cl)ccc1-c1ccn(-c2ccc3c(cnn3CCN3CCCC3)c2)c(=O)c1.Cl
Second: Cl.O=c1cc(-c2ccc(Cl)cc2F)ccn1-c1ccc2c(cnn2CCN2CCCC2)c1
The melting point of the first is higher: 248 to 256 °C for the first, 215 to 230 °C for the second.

First: Cl.O=c1cc(-c2ccc3c(c2)OCO3)ccn1-c1ccc2c(cnn2CCN2CCCC2)c1
Second: Cl.Cn1ncc2cc(-c3ccn(-c4ccc5c(cnn5CCN5CCCC5)c4)c(=O)c3)ccc21
The melting point of the first is higher: 75 to 85 °C for the first, 55 to 65 °C for the second.

Compared with Cl.O=c1cc(-c2cc3ccccc3s2)ccn1-c1ccc2c(cnn2CCN2CCCC2)c1, Cl.O=c1cc(-c2cc3ccccc3o2)ccn1-c1ccc2c(cnn2CCN2CCCC2)c1 is lower in melting point: 260 to 264 °C for the first, 256 to 260 °C for the second.

First: Cc1ccc(-c2ccn(-c3ccc4c(cnn4CCN4CCCC4)c3)c(=O)c2)nc1.Cl
Second: Cl.O=c1cc(-c2ccc(C(F)(F)F)cn2)ccn1-c1ccc2c(cnn2CCCN2CCCC2)c1
The melting point of the first is higher: 230 to 234 °C for the first, 110 to 120 °C for the second.

First: CN(C)CCn1ncc2cc(-n3ccc(-c4ccc(C(F)(F)F)cc4)cc3=O)ccc21.Cl
Second: CN(C)CCCn1ncc2cc(-n3ccc(-c4ccc(C(F)(F)F)cc4)cc3=O)ccc21.Cl
The melting point of the first is higher: 222 to 224 °C for the first, 209 to 211 °C for the second.

First: Cl.O=c1cc(-c2ccc(C(F)(F)F)cc2)ccn1-c1ccc2c(cnn2C[C@@H]2CCCN2)c1
Second: Cl.O=c1cc(-c2ccc(C(F)(F)F)cc2)ccn1-c1ccc2c(cnn2CCN2CC3CC2CO3)c1 (stereo not shown)
The melting point of the first is higher: 241 to 245 °C for the first, 148 to 150 °C for the second.

First: CN(C)C[C@@H](O)Cn1ncc2cc(-n3ccc(-c4ccc(C(F)(F)F)cc4)cc3=O)ccc21.Cl
Second: Cl.O=c1cc(-c2ccc(C(F)(F)F)cc2)ccn1-c1ccc2c(cnn2C[C@H](O)CN2CCCC2)c1
The melting point of the first is higher: 210 to 213 °C for the first, 116 to 119 °C for the second.

COc1ccc(-c2ccn(-c3ccc4c(cnn4CCN4CCCC4)c3)c(=O)c2)c(F)c1.Cl and COc1ccc(-c2ccn(-c3ccc4c(cnn4CCN4CCCC4)c3)c(=O)c2)c(Cl)c1.Cl cannot be ordered by melting point: 230 to 240 °C for the first, 225 to 235 °C for the second.

First: Cl.O=c1cc(-c2ccc(OC(F)(F)F)cc2F)ccn1-c1ccc2c(cnn2CCN2CCCC2)c1
Second: COc1ccc2[nH]c(-c3ccn(-c4ccc5c(cnn5CCN5CCCC5)c4)c(=O)c3)cc2c1.Cl
The melting point of the first is lower: 215 to 225 °C for the first, 275 to 280 °C for the second.

First: Cl.O=c1cc(-c2ccc(N3CCCCC3)cc2)ccn1-c1ccc2c(cnn2CCN2CCCC2)c1
Second: Cl.O=c1cc(-c2ccc(-n3cccn3)cc2)ccn1-c1ccc2c(cnn2CCN2CCCC2)c1
The melting point of the first is lower: 80 to 90 °C for the first, 271 to 275 °C for the second.

Compared with Cc1ccc2oc(-c3ccn(-c4ccc5c(cnn5CCN5CCCC5)c4)c(=O)c3)nc2c1.Cl, O=c1cc(-c2ccc3ccccc3n2)ccn1-c1ccc2c(cnn2CCN2CCCC2)c1 (as salt: hydrochloride) is lower in melting point: 270 to 280 °C for the first, 220 to 225 °C for the second.

First: CC1CC=C(c2ccn(-c3ccc4c(cnn4CCN4CCCC4)c3)c(=O)c2)CC1.Cl (stereo not shown)
Second: CC1CCC(c2ccn(-c3ccc4c(cnn4CCN4CCCC4)c3)c(=O)c2)CC1.Cl (stereo not shown)
The melting point of the first is higher: 256 to 260 °C for the first, 80 to 85 °C for the second.

For Cl.O=c1cc(-c2ccc(Cl)cc2)ccn1-c1ccc2c(cnn2CCN2CCCC2)c1, the melting point was 255 to 260 °C (dec.).
In the case of Cl.O=c1cc(-c2ccc(C(F)(F)F)cc2)ccn1-c1ccc2c(cnn2CCN2CCOCC2)c1, the melting point is reported as 248 to 250 °C (dec.).
For Cl.O=c1cc(-c2ccc(C(F)(F)F)cc2)ccn1-c1ccc2c(cnn2CCN2CCNCC2)c1, the melting point was 222 to 224 °C (dec.).
In the case of Cl.NCCCn1ncc2cc(-n3ccc(-c4ccc(C(F)(F)F)cc4)cc3=O)ccc21, the melting point is reported as 222 to 224 °C (dec.).

Biological target: T1, human MCH1 receptor (Homo sapiens, UniProt Q99705)
T1 construct: host or cells: CHO cells (assay I)
Assay: MCH1 binding assay I or II (radioligand binding, membranes of CHO cells expressing the receptor)
Conditions: estimated based on the measured percent inhibition
Text: Binding Assay I for Human Melanin-Concentrating Hormone (MCH1) Receptor
Evaluation of the affinity of compounds for the human MCH1 receptor was accomplished in transfected Chinese Hamster Ovary (CHO) cells determined in a radioligand binding assay, as described in MacDonald et al., “Molecular characterization of the melanin-concentrating hormone/receptor complex: identification of critical residues involved in binding and activation”, Mol Pharmacol., 58:217 (2000). […] Nonspecific binding was determined in the presence of 0.1 μM MCH. […] The filters were dried, then counted for radioactivity in a scintillation counter (Topcount, Packard) using a scintillation cocktail (Microscint 0, Packard).
The results are expressed as a percent inhibition of the control radioligand specific binding. The IC50 value (concentration causing a half-maximal inhibition of control specific binding) and Hill coefficient (nH) were determined by non-linear regression analysis of the competition curve using Hill equation curve fitting. The inhibition constant (Ki) was calculated from the Cheng Prusoff equation: (Ki=IC50/(1+(L/KD)), where L=concentration of radioligand in the assay, and KD=affinity of the radioligand for the receptor). […]
The results are expressed as a percent inhibition of the control radioligand specific binding. […]

T1 sequence (Q99705 whole entry): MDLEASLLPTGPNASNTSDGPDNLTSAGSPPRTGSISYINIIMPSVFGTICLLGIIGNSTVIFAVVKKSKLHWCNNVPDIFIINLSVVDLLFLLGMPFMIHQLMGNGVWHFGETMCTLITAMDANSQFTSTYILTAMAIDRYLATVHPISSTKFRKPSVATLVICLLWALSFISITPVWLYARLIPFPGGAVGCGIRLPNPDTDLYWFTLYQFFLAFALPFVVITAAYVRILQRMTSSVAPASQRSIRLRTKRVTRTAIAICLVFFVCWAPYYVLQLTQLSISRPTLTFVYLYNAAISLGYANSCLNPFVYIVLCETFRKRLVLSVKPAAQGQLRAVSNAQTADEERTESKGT

Compound COc1ccc2c(c1)cc(-c1ccn(-c3ccc4c(cnn4CCN4CCCC4)c3)c(=O)c1)n2C [Example 65, 4-(5-Methoxy-1-methyl-1H-indol-2-yl)-1-(1-(2-(pyrrolidin-1-yl)ethyl)-1H-indazol-5-yl)pyridin-2(1H)-one dihydrochloride] has a Ki of roughly 3 µM.

— US8273770B2, “5-pyridinone substituted indazoles” (Albany Molecular Research, Inc., priority 2007, dated 2012)
